Experimental data taken from patent US9951044B2, “Quinazoline derivatives and their use as DNA methyltransferase inhibitors” (PIERRE FABRE MEDICAMENT, priority 2013, dated 2018).
Where two headings read alike, the source gives them in different places.

Legend:
[1] = target: T1, His-DNMT1 (182 kDa, human) (Homo sapiens, UniProt P26358); test: DNMT1 assay ([methyl-3H] SAM Flashplate); format: biochemical; conditions: for inhibition at 32 µM: read-out: DNMT1 (% of inhibition) 32 μM; for inhibition at 100 µM: read-out: DNMT1 (% of inhibition) 100 μM
T1 construct: His; made in house
T1 sequence (P26358 whole entry): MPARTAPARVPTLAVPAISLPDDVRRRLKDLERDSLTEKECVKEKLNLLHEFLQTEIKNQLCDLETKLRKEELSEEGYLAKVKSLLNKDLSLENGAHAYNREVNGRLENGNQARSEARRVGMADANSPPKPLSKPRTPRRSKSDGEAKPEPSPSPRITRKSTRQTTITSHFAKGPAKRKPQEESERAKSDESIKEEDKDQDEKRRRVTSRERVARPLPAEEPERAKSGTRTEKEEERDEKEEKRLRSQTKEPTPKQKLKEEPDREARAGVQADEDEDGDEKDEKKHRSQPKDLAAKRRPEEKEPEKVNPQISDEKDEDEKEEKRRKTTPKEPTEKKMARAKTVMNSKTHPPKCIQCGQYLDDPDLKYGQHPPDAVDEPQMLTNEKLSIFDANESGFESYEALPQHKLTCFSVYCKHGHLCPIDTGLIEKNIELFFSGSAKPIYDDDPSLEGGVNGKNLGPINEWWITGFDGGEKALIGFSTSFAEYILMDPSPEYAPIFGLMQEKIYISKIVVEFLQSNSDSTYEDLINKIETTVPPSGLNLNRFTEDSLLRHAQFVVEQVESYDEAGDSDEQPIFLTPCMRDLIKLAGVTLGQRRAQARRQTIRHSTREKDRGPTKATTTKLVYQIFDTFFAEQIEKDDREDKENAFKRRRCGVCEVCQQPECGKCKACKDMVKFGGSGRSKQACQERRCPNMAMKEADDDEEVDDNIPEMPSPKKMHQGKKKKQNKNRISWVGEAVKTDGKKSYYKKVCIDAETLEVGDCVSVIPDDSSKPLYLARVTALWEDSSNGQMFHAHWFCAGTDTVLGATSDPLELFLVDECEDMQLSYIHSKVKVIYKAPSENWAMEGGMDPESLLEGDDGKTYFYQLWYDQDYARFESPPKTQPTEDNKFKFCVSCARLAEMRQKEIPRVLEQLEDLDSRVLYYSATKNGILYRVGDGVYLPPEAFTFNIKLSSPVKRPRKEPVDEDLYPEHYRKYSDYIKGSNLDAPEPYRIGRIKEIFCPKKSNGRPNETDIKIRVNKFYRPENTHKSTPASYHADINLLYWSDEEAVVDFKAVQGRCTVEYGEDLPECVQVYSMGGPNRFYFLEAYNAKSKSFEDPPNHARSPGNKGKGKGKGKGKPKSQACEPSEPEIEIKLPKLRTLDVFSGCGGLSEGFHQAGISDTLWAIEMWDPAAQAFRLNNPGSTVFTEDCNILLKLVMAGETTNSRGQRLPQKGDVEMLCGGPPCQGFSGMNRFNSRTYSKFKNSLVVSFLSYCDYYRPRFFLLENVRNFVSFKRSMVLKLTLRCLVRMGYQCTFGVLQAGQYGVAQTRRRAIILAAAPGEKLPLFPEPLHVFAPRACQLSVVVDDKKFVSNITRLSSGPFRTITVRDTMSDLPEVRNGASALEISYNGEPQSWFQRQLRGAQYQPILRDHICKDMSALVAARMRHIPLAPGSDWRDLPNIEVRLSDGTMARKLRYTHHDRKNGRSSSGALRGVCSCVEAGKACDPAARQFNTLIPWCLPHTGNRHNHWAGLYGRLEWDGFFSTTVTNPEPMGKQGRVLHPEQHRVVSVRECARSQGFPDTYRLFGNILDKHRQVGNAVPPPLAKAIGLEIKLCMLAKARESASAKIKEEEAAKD
Experimental: His-DNMT1 (182 kDa, human) was cloned, expressed and purified as described in Halby et al. (ChemBioChem 2012, 13, 157-65). The reaction was performed in a 10 μL total reaction volume in low volume NBS™ 384-well microplates (Corning), containing the tested compound (up to 1% DMSO), 1 μM of a SAM/[methyl-^3H] SAM (3 TBq/mmol, PerkinElmer) mix in a ratio of 3-to-1 (isotopic dilution 1*:3), 0.3 μM of biotinylated hemimethylated DNA duplex (5′-GATmCGCmCGATGmCGmCGAATmCGmCGAT mCGATGmCGAT-3′ and BIOT-5′-[…] ATC-3′), and 90 nM of DNMT1 in methylation buffer (20 mM HEPES pH 7.2, 1 mM EDTA, 50 mM KCl, 25 μg/mL BSA). The reaction was incubated at 37° C. for 2 hours. 8 μL are then transferred into a streptavidin 96-well scintillant coated Flashplate™ (PerkinElmer) containing 190 μL of 20 μM SAH in 50 mM Tris-HCl pH 7.4. The Flashplate™ was agitated at room temperature for 1 hour, washed three times with 200 μL of 0.05% Tween®-20 in 50 mM Tris-HCl pH 7.4, and read in 200 μL of 50 mM Tris-HCl pH 7.4 on TopCount NXT (PerkinElmer).

[2] = target: T2, human C-terminal DNMT3A (a.a. 623-908) (Homo sapiens, UniProt Q9Y6K1); test: DNMT3A assay (restriction-based fluorescence); format: biochemical; conditions: for inhibition at 10 µM: read-out: DNMT3A (% of inhibition) 10 μM; for inhibition at 20 µM: compound at 20 μM; for EC50: concentration range in triplicates; for inhibition at 32 µM: read-out: DNMT3A (% of inhibition) 32 μM
T2 construct: The human C-terminal DNMT3A (a.a. 623-908); made in house
T2 sequence (Q9Y6K1 627-912 limits assumed): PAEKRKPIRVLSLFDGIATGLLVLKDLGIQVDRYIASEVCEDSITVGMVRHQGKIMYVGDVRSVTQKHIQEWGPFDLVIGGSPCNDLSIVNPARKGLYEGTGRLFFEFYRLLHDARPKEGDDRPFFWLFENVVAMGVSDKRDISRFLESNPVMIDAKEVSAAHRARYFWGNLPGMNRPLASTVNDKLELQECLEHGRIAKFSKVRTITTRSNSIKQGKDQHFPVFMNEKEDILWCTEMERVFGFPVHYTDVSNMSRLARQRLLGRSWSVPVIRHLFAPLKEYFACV
Description: DNMT3A enzyme inhibition was adapted from the restriction-based fluorescence assay protocol described in Ceccaldi et al. (ChemBioChem 2011, 12, 1337-45). Briefly, a 5′-labelled biotin oligonucleotide is hybridized to its complementary strand labelled with 6-carboxyfluorescein at the 3′-end into a 384 well microplate (black Optiplates; Perkin Elmer) pre-coated with avidin. The duplex contains a unique CpG site overlapping with a restriction site of a methylation sensitive restriction enzyme. The human C-terminal DNMT3A (a.a. 623-908), produced as described in Gros et al. (Nucleic Acids Research 2013 Aug. 25), was added in each well (200 ng/well) and mixed with the chemical compounds at desired concentrations and freshly prepared AdoMet (20 μM final concentration) to start the reaction in a total volume of 50 μL. After 1 hour incubation at 37° C. each well were washed three times with PBS, Tween-20 0.05%, NaCl (500 mM) and three more times with PBST. Specific fluorescent signals were detected with the methylation-sensitive restriction enzyme HpyCH4IV (NEB) as described and measured on a Perkin Elmer Envision detector. The percentage of inhibition is reported. The formula used to calculate the percentage of inhibition is [(X−Y)/X]×100, where X is the signal determined in the absence of the inhibitor and Y is the signal obtained in the presence of the inhibitor. The concentration at which 50% of efficacy of inhibition is observed (EC50) was determined by analysis of a concentration range of the tested compound in triplicates. The non-linear regression fittings with sigmoidal dose-response (variable slope) were performed with GraphPad Prism 4.03 (GraphPad Software).

[3] = system: KG-1 human leukemia cells; test: Anti-proliferative activity on KG-1 cells (ATPLite); format: cell-based; conditions: KG-1, 96 h, treatment days 1-3, viability day 4, mean of at least two experiments, 95% confidence interval in brackets
Experimental: (§1) KG-1 and Karpas299 human leukemia cells were obtained from the ATCC (USA) and cultivated in RPMI 1640 medium (with HEPES and Glutamine, BE12-115F, Lonza, France) supplemented with, respectively, 20% and 15% foetal calf serum (Lonza, France), at 37° C. and under 5% CO2. To measure the anti-proliferative properties of tested molecules, 2×10^4 cells are seeded at day 0 in a 96 wells plate. The compounds to be tested, stored at −20° C. as 10^−2 M stock solution in 100% DMSO, are freshly diluted on day 1 in RPMI 1640 medium, before adding a dose range of 3.2 nM to 10 μM to the cells. This treatment is repeated on day 2 and 3, and on day 4 cell viability is assessed using the ATPLite kit from Perkin (ATPlite 1 Step Luminescence Assay System, ref 3016739), following the provider instructions. The raw data are analyzed with GraphPad Prism software (v4.03) to generate EC50 values corresponding to the compound concentrations giving 50% reduction in cell viability. The values presented are the mean results of at least two independent experiments.

[4] = system: Karpas299 human leukemia cells; test: Anti-proliferative activity on Karpas 299 cells (ATPLite); format: cell-based; conditions: KARPAS-299, 96 h, treatment days 1-3, viability day 4, mean of at least two experiments, 95% confidence interval in brackets
Experimental: as §1

[5] = system: WM266.4 cells (human melanoma cells); test: Anti-proliferative activity on WM266.4 cells (ATPlite one step); format: cell-based; conditions: WM 266-4, 72 h incubation, read-out: EC50 (μM) WN226.4
Experimental: (§2) The antiproliferative activity of compounds was measured in vitro using the ATP quantification method “ATPlite one step assay” (Perkin Elmer ref 6016739) according to the manufacturer conditions.
(§3) Briefly, WM266.4 cells (human melanoma cells) (5×10^4 cells per ml in RPMI1640 medium, 10% FBS, 2 mM glutamine, 50 U/mL penicillin/streptomycin and 1.25 μg/mL fungizone), PANC1 cells (human pancreatic carcinoma cells) (2×10^4 cells per ml in DMEM medium, 10% FBS, 2 mM glutamine, 50 U/mL penicillin/streptomycin and 1.25 μg/mL fungizone), and U87MG cells (human neuronal gliablastoma-astrocytoma-cells) (3×10^4 cells per ml in MEM medium, 10% FBS, 2 mM glutamine, 50 U/mL penicillin/streptomycin and 1.25 μg/mL fungizone) were seeded in 96-well plates, incubated for 24 h and treated with 8 increasing concentrations of test compounds diluted in cells respective mediums, or vehicle in triplicate.
(§4) Cells were then incubated for 72 h at 37° C. in humidified 5% CO2 atmosphere.
(§5) At the end of the experiment, cell viability was evaluated by determining the level of ATP released by viable cells.
(§6) EC50 values were determined with curve fitting analysis method (non linear regression model with a sigmoid dose response, variable Hill slope coefficient) provided by the Prism Software (GraphPad). […]

[6] = system: U87MG cells (human neuronal gliablastoma-astrocytoma-cells); test: Anti-proliferative activity on U87MG cells (ATPlite one step); format: cell-based; conditions: U-87 MG, 72 h incubation
Experimental: as §2, §3, §4, §5, §6

[7] = system: PANC1 cells (human pancreatic carcinoma cells); test: Anti-proliferative activity on PANC1 cells (ATPlite one step); format: cell-based; conditions: PANC-1, 72 h incubation
Experimental: as §2, §3, §4, §5, §6

inhibition at 32 µM ([1]; compound at 32 μM) | inhibition at 100 µM ([1]; compound at 100 μM) | inhibition at 10 µM ([2]; compound at 10 μM) | EC50 [2] | inhibition at 32 µM ([2]; compound at 32 μM) | SMILES | also measured
24.5% | 91.2% | 81% | 2400 nM | – | c1ccc(CCCNc2ncnc3cc(OCC4CCN(CCNc5ccnc6ccccc56)CC4)ccc23)cc1 [Compound G, 4-((3-phenylpropyl)amino)-7-((1-(2-(quinolin-4-ylamino)ethyl)piperidin-4-yl)methoxy)quinazoline] | inhibition at 20 µM [2]: 97%; EC50 [3]: 0.5 µM; EC50 [4]: 1.8 µM; EC50 [5]: 3.9 µM; EC50 [6]: 8.9 µM; EC50 [7]: 1.2 µM
24% | 69% | 86% | – | 83% | c1ccc(-c2ccc(CNc3ncnc4cc(OCC5CCN(CCNc6ccnc7ccccc67)CC5)ccc34)cc2)cc1 [Compound N, 4-([1,1′-biphenyl]-4-ylmethylamino)-7-((1-(2-(quinolin-4-ylamino)ethyl)piperidin-4-yl)methoxy)quinazoline] | EC50 [3]: 0.4 µM
59% | 100% | – | – | 93% | NS(=O)(=O)c1ccc(CCNc2ncnc3cc(OCC4CCN(CCNc5ccnc6ccccc56)CC4)ccc23)cc1 [AD, 4-(2-(4-sulfonamidophenyl)ethylamino)-7-((1-(2-(quinolin-4-ylamino)ethyl)piperidin-4-yl)methoxy)quinazoline] | –
– | 90% | 59% | 10000 nM | 87% | c1ccc(CCCNc2ncnc3cc(OCCCNCCNc4ccnc5ccccc45)ccc23)cc1 [Compound F, 7-(3-((2-(quinolin-4-ylamino)ethyl)amino)propyloxy)-4-((3-phenylpropyl)amino)quinazoline] | inhibition at 20 µM [2]: 76%
– | 97% | 60% | 10000 nM | 85% | c1ccc(CCCNc2ncnc3cc(OCCCNCCCNc4ccnc5ccccc45)ccc23)cc1 [Compound A] | inhibition at 20 µM [2]: 76%
– | 100% | – | – | 81% | c1ccc(CCCNc2ncnc3cc(OCC4CCN(CCNc5ccnc6ccccc56)C4)ccc23)cc1 (stereo not shown) [Compound AM, 4-((3-phenylpropyl)amino)-7-((1-(2-(quinolin-4-ylamino)ethyl)pyrrolidin-3-yl)methoxy)quinazoline] | –
100% | 100% | 89% | 1100 nM | 91% | O=c1c2ccc(OCC3CCN(CCNc4ccnc5ccccc45)CC3)cc2ncn1CCNc1ccnc2ccccc12 [Compound M] | EC50 [3]: 1.3 µM; EC50 [4]: 0.7 µM
– | 90% | 52% | – | 95% | c1ccc(CCCNc2ncnc3cc(OCCNc4ccnc5ccccc45)ccc23)cc1 [Compound S, 4-(3-phenylpropylamino)-7-(2-(quinolin-4-ylamino)ethoxy)quinazoline] | –
81% | 81% | 72% | 8000 nM | 93% | c1ccc(CN2CCC(Nc3ncnc4cc(OCC5CCN(CCNc6ccnc7ccccc67)CC5)ccc34)CC2)cc1 [AL] | –
54% | 74% | 61% | 1100 nM | 72% | O=[N+]([O-])c1ccc(CCNc2ncnc3cc(OCC4CCN(CCNc5ccnc6ccccc56)CC4)ccc23)cc1 [AE, 4-(2-(4-nitrophenyl)ethylamino)-7-((1-(2-(quinolin-4-ylamino)ethyl)piperidin-4-yl)methoxy)quinazoline] | –
– | – | – | – | – | COc1cc2nccc(NCCN3CCC(COc4ccc5c(NCCCc6ccccc6)ncnc5c4)CC3)c2cc1OC [AQ, 4-((3-phenylpropyl)amino)-7-((1-(2-(6,7-dimethoxyquinolin-4-ylamino)ethyl)piperidin-4-yl)methoxy)quinazoline] | inhibition at 32 µM [1]: 61%; inhibition at 100 µM [1]: 100%; inhibition at 10 µM [2]: 95%; inhibition at 32 µM [2]: 95%

SMILES | inhibition at 32 µM ([1]; compound at 32 μM) | inhibition at 100 µM ([1]; compound at 100 μM) | inhibition at 10 µM ([2]; compound at 10 μM) | EC50 [2] | inhibition at 32 µM ([2]; compound at 32 μM) | also measured
COc1ccc2c(NCCN3CCC(COc4ccc5c(NCCCc6ccccc6)ncnc5c4)CC3)ccnc2c1 [AP, 4-((3-phenylpropyl)amino)-7-((1-(2-(7-methoxyquinolin-4-ylamino)ethyl)piperidin-4-yl)methoxy)quinazoline] | – | – | – | 2600 nM | – | inhibition at 100 µM [1]: 90%; inhibition at 10 µM [2]: 70%; inhibition at 32 µM [2]: 80%
